Test results taken from patent EP0908457B1, “3-(1,2-benzisothiazol- and isoxazol-5-Y1)-2,4(1H,3H)-pyrimidinedione or thione and 3-(1,2-benzisothiazol- and isoxazol-5-y1)-4(3H)-pyrimidinone or thione herbicidal agents” (BASF AKTIENGESELLSCHAFT, priority 1997, dated 1999).

How the values were obtained:
[1] = system: Sagittaria pygmaea, L.; experiment: Preemergence weed control under flooded paddy conditions, SAGPY (Arrowhead (Pygmaea)); assay type: in vivo; conditions: flooded paddy; for herbicidal effect rating, SAGPY / SAGPY herbicidal rating: preemergence; for SAGPY: preemergence weeds, herbicidal effect rating 0-9, three to four weeks after treatment; on herbicidal effect rating, SAGPY: meaning of each grade not given here
[2] = system: Oryza sativa, (L.) Tebonnet; experiment: Rice tolerance to post-transplant applications under flooded paddy conditions (Example 187), ORYSAT (Rice, Tebonnet); conditions: for herbicidal effect rating ORYSAT: rated 3-4 weeks after treatment; for ORYSAT herbicidal rating (rice tolerance) / herbicidal effect rating, ORYSAT (rice tolerance): rated three to four weeks after treatment; for ORYSAT: herbicidal effect rating 0-9, three to four weeks after treatment; on herbicidal effect rating ORYSAT: meaning of each grade not given here
[3] = system: Echinochloa oryzoides (Ard.) Fritsch.; experiment: Preemergence weed control under flooded paddy conditions, ECHORC (Watergrass (Calif.)); assay type: in vivo; conditions: flooded paddy; for herbicidal effect rating, ECHORC / ECHORC herbicidal rating: preemergence; for ECHORC: preemergence weeds, herbicidal effect rating 0-9, three to four weeks after treatment; on herbicidal effect rating, ECHORC: meaning of each grade not given here
[4] = system: Cyperus serotinus, Rottb.; experiment: Preemergence weed control under flooded paddy conditions, CYPSE (Flatsedge); assay type: in vivo; conditions: for herbicidal effect rating, CYPSE / CYPSE herbicidal rating: preemergence; on herbicidal effect rating, CYPSE: meaning of each grade not given here
[5] = system: Monochoria vaginalis, Presl.; experiment: Preemergence weed control under flooded paddy conditions, MOOVA (Monochoria); assay type: in vivo; conditions: flooded paddy; for herbicidal effect rating, MOOVA / MOOVA herbicidal rating: preemergence; for MOOVA: preemergence weeds, herbicidal effect rating 0-9, three to four weeks after treatment; on herbicidal effect rating, MOOVA: meaning of each grade not given here
[6] = system: Cyperus iria; experiment: Preemergence weed control under flooded paddy conditions, CYPIR (Rice Flatsedge); assay type: in vivo; conditions: flooded paddy; for herbicidal effect rating, CYPIR / CYPIR herbicidal rating: preemergence; for CYPIR: preemergence weeds, herbicidal effect rating 0-9, three to four weeks after treatment; on herbicidal effect rating, CYPIR: meaning of each grade not given here
[7] = Rate 0.0320 kg/ha, rated 3-4 weeks after treatment
[8] = Rate 0.0620 kg/ha, rated 3-4 weeks after treatment
[9] = Rate 0.1250 kg/ha, rated 3-4 weeks after treatment
[10] = Rate 0.2500 kg/ha, rated 3-4 weeks after treatment
[11] = 0.0320 kg/ha, rated three to four weeks after treatment
[12] = 0.0620 kg/ha, rated three to four weeks after treatment
[13] = 0.1250 kg/ha, rated three to four weeks after treatment
[14] = 0.2500 kg/ha, rated three to four weeks after treatment
[15] = 0.0313 kg/ha, rated three to four weeks after treatment
[16] = 0.0625 kg/ha, rated three to four weeks after treatment

## COCC(C)OC(=O)C(C)(C)Oc1ccc(C)cc1-c1nsc2ccc(-n3c(=O)cc(C(F)(F)F)n(C)c3=O)cc12 (centres unmarked) [Example 532, Propionic acid, 2-{{2-{5-[3,6-dihydro-3-methyl-2,6-dioxo-4-(trifluoromethyl)-1(2H)-pyrimidinyl]-1,2-benzisothiazol-3-yl}-p-tolyl}oxy}-2-methyl-, 2-methoxy-1-methylethyl ester]
[1]; [7]
  herbicidal effect rating, SAGPY: 0.0
[1]; [8]
  herbicidal effect rating, SAGPY: 0.0
[1]; [9]
  herbicidal effect rating, SAGPY: 0.0
[1]; [10]
  herbicidal effect rating, SAGPY: 9.0
[2]; Rate 0.0320 kg/ha
  herbicidal effect rating ORYSAT: 0.0
[2]; Rate 0.0620 kg/ha
  herbicidal effect rating ORYSAT: 0.0
[2]; Rate 0.1250 kg/ha
  herbicidal effect rating ORYSAT: 0.0
[2]; Rate 0.2500 kg/ha
  herbicidal effect rating ORYSAT: 2.0
[3]; [7]
  herbicidal effect rating, ECHORC: 9.0
[3]; [8]
  herbicidal effect rating, ECHORC: 9.0
[3]; [9]
  herbicidal effect rating, ECHORC: 9.0
[3]; [10]
  herbicidal effect rating, ECHORC: 9.0
[4]; [7]
  herbicidal effect rating, CYPSE: 0.0
[4]; [8]
  herbicidal effect rating, CYPSE: 0.0
[4]; [9]
  herbicidal effect rating, CYPSE: 0.0
[4]; [10]
  herbicidal effect rating, CYPSE: 0.0
[5]; [7]
  herbicidal effect rating, MOOVA: 9.0
[5]; [8]
  herbicidal effect rating, MOOVA: 9.0
[5]; [9]
  herbicidal effect rating, MOOVA: 9.0
[5]; [10]
  herbicidal effect rating, MOOVA: 9.0
[6]; [7]
  herbicidal effect rating, CYPIR: 9.0
[6]; [8]
  herbicidal effect rating, CYPIR: 9.0
[6]; [9]
  herbicidal effect rating, CYPIR: 9.0
[6]; [10]
  herbicidal effect rating, CYPIR: 9.0

## Cn1c(C(F)(F)F)cc(=O)n(-c2ccc3snc(C(C)(C)C(=O)NS(C)(=O)=O)c3c2)c1=O [Example 488, 1,2-Benzisothiazole-3-acetamide, 5-[3,6-dihydro-3-methyl-2,6-dioxo-4-(trifluoromethyl)-1(2H)-pyrimidinyl]-alpha,alpha-dimethyl-N-(methylsulfonyl)-]
[1]; [11]
  SAGPY herbicidal rating: 0.0
[1]; [12]
  SAGPY herbicidal rating: 0.0
[1]; [13]
  SAGPY herbicidal rating: 0.0
[1]; [14]
  SAGPY herbicidal rating: 0.0
[2]; 0.0320 kg/ha
  ORYSAT herbicidal rating (rice tolerance): 3.0
[2]; 0.0620 kg/ha
  ORYSAT herbicidal rating (rice tolerance): 3.0
[2]; 0.1250 kg/ha
  ORYSAT herbicidal rating (rice tolerance): 4.0
[2]; 0.2500 kg/ha
  ORYSAT herbicidal rating (rice tolerance): 4.0
[3]; [11]
  ECHORC herbicidal rating: 0.0
[3]; [12]
  ECHORC herbicidal rating: 0.0
[3]; [13]
  ECHORC herbicidal rating: 0.0
[3]; [14]
  ECHORC herbicidal rating: 0.0
[4]; [12]
  CYPSE herbicidal rating: 0.0
[4]; [13]
  CYPSE herbicidal rating: 0.0
[5]; [11]
  MOOVA herbicidal rating: 7.0
[5]; [12]
  MOOVA herbicidal rating: 9.0
[5]; [13]
  MOOVA herbicidal rating: 9.0
[5]; [14]
  MOOVA herbicidal rating: 9.0
[6]; [11]
  CYPIR herbicidal rating: 3.0
[6]; [12]
  CYPIR herbicidal rating: 3.0
[6]; [13]
  CYPIR herbicidal rating: 4.0
[6]; [14]
  CYPIR herbicidal rating: 5.0

## COc1ccc(C)cc1-c1nsc2ccc(-n3c(=O)cc(C)n(C)c3=O)cc12 [Example 24, 3-[3-(6-Methoxy-m-tolyl)-1,2-benzisothiazol-5-yl]-1,6-dimethyl-2,4(1H,3H)-pyrimidinedione]
[1]; [15]
  herbicidal effect rating, SAGPY: 0.0
[1]; [16]
  herbicidal effect rating, SAGPY: 0.0
[1]; [13]
  herbicidal effect rating, SAGPY: 0.0
[1]; [14]
  herbicidal effect rating, SAGPY: 0.0
[2]; 0.0313 kg/ha
  herbicidal effect rating, ORYSAT (rice tolerance): 2.0
[2]; 0.0625 kg/ha
  herbicidal effect rating, ORYSAT (rice tolerance): 2.0
[2]; 0.1250 kg/ha
  herbicidal effect rating, ORYSAT (rice tolerance): 3.0
[2]; 0.2500 kg/ha
  herbicidal effect rating, ORYSAT (rice tolerance): 4.0
[3]; [15]
  herbicidal effect rating, ECHORC: 0.0
[3]; [16]
  herbicidal effect rating, ECHORC: 0.0
[3]; [13]
  herbicidal effect rating, ECHORC: 2.0
[3]; [14]
  herbicidal effect rating, ECHORC: 7.0
[4]; [15]
  herbicidal effect rating, CYPSE: 0.0
[4]; [16]
  herbicidal effect rating, CYPSE: 0.0
[4]; [13]
  herbicidal effect rating, CYPSE: 1.0
[4]; [14]
  herbicidal effect rating, CYPSE: 4.0
[5]; [15]
  herbicidal effect rating, MOOVA: 4.0
[5]; [16]
  herbicidal effect rating, MOOVA: 8.0
[5]; [13]
  herbicidal effect rating, MOOVA: 9.0
[5]; [14]
  herbicidal effect rating, MOOVA: 9.0
[6]; [15]
  herbicidal effect rating, CYPIR: 0.0
[6]; [16]
  herbicidal effect rating, CYPIR: 2.0
[6]; [13]
  herbicidal effect rating, CYPIR: 6.0
[6]; [14]
  herbicidal effect rating, CYPIR: 8.0

## Cn1c(C(F)(F)F)cc(=O)n(-c2ccc3snc(C(=O)SCc4ccccc4)c3c2)c1=O [Example 421, 1,2-Benzisothiazole-3-thiocarboxylic acid, 5-[3,6-dihydro-3-methyl-2,6-dioxo-4-(trifluoromethyl)-1(2H)-pyrimidinyl]-, S-benzyl ester]
[1]; 0.0320 kg/ha
  SAGPY: 0.0
[1]; 0.0620 kg/ha
  SAGPY: 0.0
[1]; 0.1250 kg/ha
  SAGPY: 0.0
[1]; 0.2500 kg/ha
  SAGPY: 2.0
[2]; 0.0320 kg/ha
  ORYSAT: 0.0
[2]; 0.0620 kg/ha
  ORYSAT: 0.0
[2]; 0.1250 kg/ha
  ORYSAT: 0.0
[2]; 0.2500 kg/ha
  ORYSAT: 2.0
[3]; 0.0320 kg/ha
  ECHORC: 5.0
[3]; 0.0620 kg/ha
  ECHORC: 5.0
[3]; 0.1250 kg/ha
  ECHORC: 7.0
[3]; 0.2500 kg/ha
  ECHORC: 9.0
[4]; 0.2500 kg/ha, preemergence weeds, herbicidal effect rating 0-9, three to four weeks after treatment
  CYPSE: 4.0
[5]; 0.0320 kg/ha
  MOOVA: 5.0
[5]; 0.0620 kg/ha
  MOOVA: 6.0
[5]; 0.1250 kg/ha
  MOOVA: 7.0
[5]; 0.2500 kg/ha
  MOOVA: 9.0
[6]; 0.0320 kg/ha
  CYPIR: 2.0
[6]; 0.0620 kg/ha
  CYPIR: 6.0
[6]; 0.1250 kg/ha
  CYPIR: 8.0
[6]; 0.2500 kg/ha
  CYPIR: 9.0

## COC(=O)C(C)Oc1ccc(I)cc1-c1nsc2ccc(-n3c(=O)cc(C(F)(F)F)n(C)c3=O)cc12 (centres unmarked) [Example 460, Propionic acid, 2-{2-{5-[3,6-dihydro-3-methyl-2,6-dioxo-4-(trifluoromethyl)-1(2H)-pyrimidinyl]-1,2-benzisothiazol-3-yl}-4-iodophenoxy}-, methyl ester]
[1]; [11]
  SAGPY herbicidal rating: 0.0
[1]; [12]
  SAGPY herbicidal rating: 0.0
[1]; [13]
  SAGPY herbicidal rating: 3.0
[1]; [14]
  SAGPY herbicidal rating: 3.0
[2]; 0.0320 kg/ha
  ORYSAT herbicidal rating (rice tolerance): 4.0
[2]; 0.0620 kg/ha
  ORYSAT herbicidal rating (rice tolerance): 4.0
[2]; 0.1250 kg/ha
  ORYSAT herbicidal rating (rice tolerance): 4.0
[2]; 0.2500 kg/ha
  ORYSAT herbicidal rating (rice tolerance): 5.0
[3]; [11]
  ECHORC herbicidal rating: 6.0
[3]; [12]
  ECHORC herbicidal rating: 7.0
[3]; [13]
  ECHORC herbicidal rating: 9.0
[3]; [14]
  ECHORC herbicidal rating: 9.0
[4]; [13]
  CYPSE herbicidal rating: 0.0
[4]; [14]
  CYPSE herbicidal rating: 0.0
[5]; [11]
  MOOVA herbicidal rating: 3.0
[5]; [12]
  MOOVA herbicidal rating: 4.0
[5]; [13]
  MOOVA herbicidal rating: 4.0
[5]; [14]
  MOOVA herbicidal rating: 4.0
[6]; [11]
  CYPIR herbicidal rating: 0.0
[6]; [12]
  CYPIR herbicidal rating: 2.0
[6]; [13]
  CYPIR herbicidal rating: 3.0
[6]; [14]
  CYPIR herbicidal rating: 3.0

## COC(=O)COc1noc2ccc(-n3c(=O)cc(C(F)(F)F)n(C)c3=O)cc12 [Example 22, Methyl {{5-[3,6-dihydro-3-methyl-2,6-dioxo-4-(trifluoromethyl)-1(2H)-pyrimidinyl]-1,2-benzisoxazol-3-yl}oxy}acetate]
[1]; [15]
  herbicidal effect rating, SAGPY: 0.0
[1]; [16]
  herbicidal effect rating, SAGPY: 2.0
[1]; [13]
  herbicidal effect rating, SAGPY: 4.0
[1]; [14]
  herbicidal effect rating, SAGPY: 9.0
[2]; 0.0313 kg/ha
  herbicidal effect rating, ORYSAT (rice tolerance): 2.0
[2]; 0.0625 kg/ha
  herbicidal effect rating, ORYSAT (rice tolerance): 2.0
[2]; 0.1250 kg/ha
  herbicidal effect rating, ORYSAT (rice tolerance): 2.5
[2]; 0.2500 kg/ha
  herbicidal effect rating, ORYSAT (rice tolerance): 2.5
[3]; [15]
  herbicidal effect rating, ECHORC: 9.0
[3]; [16]
  herbicidal effect rating, ECHORC: 9.0
[3]; [13]
  herbicidal effect rating, ECHORC: 9.0
[3]; [14]
  herbicidal effect rating, ECHORC: 9.0
[4]; [15]
  herbicidal effect rating, CYPSE: 2.0
[4]; [16]
  herbicidal effect rating, CYPSE: 7.0
[4]; [13]
  herbicidal effect rating, CYPSE: 7.0
[4]; [14]
  herbicidal effect rating, CYPSE: 9.0
[5]; [15]
  herbicidal effect rating, MOOVA: 9.0
[5]; [16]
  herbicidal effect rating, MOOVA: 9.0
[5]; [13]
  herbicidal effect rating, MOOVA: 9.0
[5]; [14]
  herbicidal effect rating, MOOVA: 9.0
[6]; [15]
  herbicidal effect rating, CYPIR: 9.0
[6]; [16]
  herbicidal effect rating, CYPIR: 9.0
[6]; [13]
  herbicidal effect rating, CYPIR: 9.0
[6]; [14]
  herbicidal effect rating, CYPIR: 9.0
